Target: T1, human vasopressin V1a receptor subtype (Homo sapiens, UniProt P37288)
T1 construct: host or cells: CHO cells (pZeoSV vector for the Thibonnier line)
Test: Vasopressin binding in Chinese Hamster Ovary cell membranes expressing human vasopressin V1a subtype receptors
Conditions: 100 nM, CHO cell membranes, [3H]Manning ligand, values without parentheses
How it was run: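 Displacement of [3H]Manning ligand (8 nM working solution) from human V1a receptors in CHO cell membranes, 25–50 μg protein per well. Incubation ran 60 min at room temperature in 50 mM Tris-HCl pH 7.4 with protease inhibitors, followed by filtration and scintillation counting. Results are given as IC50 or percent inhibition.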

T1 sequence (P37288 whole entry): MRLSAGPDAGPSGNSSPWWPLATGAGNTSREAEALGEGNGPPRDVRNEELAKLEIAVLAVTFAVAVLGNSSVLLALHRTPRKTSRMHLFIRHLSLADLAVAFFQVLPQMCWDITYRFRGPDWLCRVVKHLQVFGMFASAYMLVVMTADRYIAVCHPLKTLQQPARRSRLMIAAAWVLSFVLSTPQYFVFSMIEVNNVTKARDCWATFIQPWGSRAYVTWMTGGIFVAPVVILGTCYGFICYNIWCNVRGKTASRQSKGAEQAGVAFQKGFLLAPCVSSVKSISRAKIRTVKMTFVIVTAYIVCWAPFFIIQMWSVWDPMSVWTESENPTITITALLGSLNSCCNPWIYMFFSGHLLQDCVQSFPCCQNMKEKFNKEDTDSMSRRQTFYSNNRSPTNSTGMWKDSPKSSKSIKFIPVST

Row | inhibition at 0.1 µM [%] | Structure (SMILES)
1 | 43 | Cc1ccccc1-c1ccc(C(=O)N2Cc3ccc(C(=O)NCCC4CCCN4C)n3Cc3ccccc32)cc1C (stereo not shown) [Example 163, 10-[(2,2′-Dimethyl[1,1′-biphenyl]-4-yl)carbonyl]-N-[2-(1-methyl-2-pyrrolidinyl)ethyl]-10,11-dihydro-5H-pyrrolo[2,1-c][1,4]benzodiazepine-3-carboxamide]
2 | 35 | C=CCN1CCN(C(=O)c2ccc3n2Cc2ccccc2N(C(=O)c2ccc(-c4ccccc4C)c(OC)c2)C3)CC1 [Example 225, (4-Allyl-1-piperazinyl){10-[(2-methoxy-2′-methyl[1,1′-biphenyl]-4-yl)carbonyl]-10,11-dihydro-5H-pyrrolo[2,1-c][1,4]benzodiazepin-3-yl}methanone]
3 | 53 | COc1cccc(-c2ccc(C(=O)N3Cc4ccc(C(=O)N(C)C5CCN(C)C5)n4Cc4ccccc43)cc2C)c1 (stereo not shown) [Example 186, 10-[(3′-Methoxy-2-methyl[1,1′-biphenyl]-4-yl)carbonyl]-N-methyl-N-(1-methyl-3-pyrrolidinyl)-10,11-dihydro-5H-pyrrolo[2,1-c][1,4]benzodiazepine-3-carboxamide]
4 | 2 | Cc1cc(C(=O)N2Cc3ccc(C(=O)N4CCN(C(=O)OC(C)(C)C)CC4)n3Cc3ccccc32)ccc1-c1ccccc1C(F)(F)F [Example 6, 4-[[10,11-Dihydro-10-[[2-methyl-2′-trifluoromethyl[1,1′-biphenyl]-4-yl]carbonyl]-5H-pyrrolo[2,1-c][1,4]benzodiazepin-3-yl]carbonyl]-1-piperazine-carboxylic acid, tert-butyl ester]
5 | 12 | COc1cc(C(=O)N2Cc3ccc(C(=O)N4CCN(CCN5CCOCC5)CC4)n3Cc3ccccc32)ccc1-c1cccc2ccccc12 [Example 213, {10-[3-Methoxy-4-(1-naphthyl)benzoyl]-10,11-dihydro-5H-pyrrolo[2,1-c][1,4]benzodiazepin-3-yl}{4-[2-(4-morpholinyl)ethyl]-1-piperazinyl}methanone]
6 | 26 | COc1ccccc1-c1ccc(C(=O)N2Cc3ccc(C(=O)N4CCN(C(C)C)CC4)n3Cc3ccccc32)cc1 [Example 234, (4-Isopropyl-1-piperazinyl){10-[(2′-methoxy[1,1′-biphenyl]-4-yl)carbonyl]-10,11-dihydro-5H-pyrrolo[2,1-c][1,4]benzodiazepin-3-yl}methanone]
7 | 64 | Cc1ccccc1-c1ccc(C(=O)N2Cc3ccc(C(=O)N4CCN(CCN5CCOCC5)CC4)n3Cc3ccccc32)cc1 [Example 209, {10-[(2′-Methyl[1,1′-biphenyl]-4-yl)carbonyl]-10,11-dihydro-5H-pyrrolo[2,1-c][1,4]benzodiazepin-3-yl}{4-[2-(4-morpholinyl)ethyl]-1-piperazinyl}methanone]
8 | 24 | COc1ccccc1-c1ccc(C(=O)N2Cc3ccc(C(=O)NCCC4CCCN4C)n3Cc3ccccc32)cc1 (stereo not shown) [Example 165, 10-[(2′-Methoxy[1,1′-biphenyl]-4-yl)carbonyl]-N-[2-(1-methyl-2-pyrrolidinyl)ethyl]-10,11-dihydro-5H-pyrrolo[2,1-c][1,4]benzodiazepine-3-carboxamide]
9 | 28 | COc1ccccc1-c1ccc(C(=O)N2Cc3ccc(C(=O)N(C)C4CCN(C)CC4)n3Cc3ccccc32)cc1C [Example 175, 10-[(2′-Methoxy-2-methyl[1,1′-biphenyl]-4-yl)carbonyl]-N-methyl-N-(1-methyl-4-piperidinyl)-10,11-dihydro-5H-pyrrolo[2,1-c][1,4]benzodiazepine-3-carboxamide]
10 | 16 | COc1ccccc1-c1ccc(C(=O)N2Cc3ccc(C(=O)NCCN4CCCCC4)n3Cc3ccccc32)cc1OC [Example 158, 10-[(2,2′-Dimethoxy[1,1′-biphenyl]-4-yl)carbonyl]-N-[2-(1-piperidinyl)ethyl]-10,11-dihydro-5H-pyrrolo[2,1-c][1,4]benzodiazepine-3-carboxamide]
11 | 9 | COc1cccc(-c2ccc(C(=O)N3Cc4ccc(C(=O)N5CCN(C(C)C)CC5)n4Cc4ccccc43)cc2C)c1 [Example 235, (4-Isopropyl-1-piperazinyl){10-[(3′-methoxy-2-methyl[1,1′-biphenyl]-4-yl)carbonyl]-10,11-dihydro-5H-pyrrolo[2,1-c][1,4]benzodiazepin-3-yl}methanone]
12 | 12 | C=CCN1CCN(C(=O)c2ccc3n2Cc2ccccc2N(C(=O)c2ccc(-c4cccc(OC)c4)c(C)c2)C3)CC1 [Example 223, (4-Allyl-1-piperazinyl){10-[(3′-methoxy-2-methyl[1,1′-biphenyl]-4-yl)carbonyl]-10,11-dihydro-5H-pyrrolo[2,1-c][1,4]benzodiazepin-3-yl}methanone]
13 | 4 | COc1cc(C(=O)N2Cc3ccc(C(=O)N4CCN(CCN(C)C)CC4)n3Cc3ccccc32)ccc1-c1cccc2ccccc12 [Example 203, {4-[2-(Dimethylamino)ethyl]-1-piperazinyl}{10-[3-methoxy-4-(1-naphthyl)benzoyl]-10,11-dihydro-5H-pyrrolo[2,1-c][1,4]benzodiazepin-3-yl}methanone]
14 | 2 | COc1cccc(-c2cc(OC)c(C(=O)N3Cc4ccc(C(=O)N5CCN(C(C)C)CC5)n4Cc4ccccc43)cc2Cl)c1 [Example 239, {10-[(6-Chloro-3,3′-dimethoxy[1,1′-biphenyl]-4-yl)carbonyl]-10,11-dihydro-5H-pyrrolo[2,1-c][1,4]benzodiazepin-3-yl}(4-isopropyl-1-piperazinyl)methanone]
15 | 10 | COc1ccccc1-c1ccc(C(=O)N2Cc3ccc(C(=O)O)n3Cc3ccccc32)cc1C [Example 9, 10-[(2′-Methoxy-2-methyl-[1,1′-biphenyl]-4-yl)carbonyl]-10,11-dihydro-5H-pyrrolo[2,1-c][1,4]benzodiazepine-3-carboxylic acid]
16 | 14 | COc1ccccc1-c1ccc(C(=O)N2Cc3ccc(C(=O)NCCC4CCCN4C)n3Cc3ccccc32)cc1OC (stereo not shown) [Example 171, 10-[(2,2′-Dimethoxy[1,1′-biphenyl]-4-yl)carbonyl]-N-[2-(1-methyl-2-pyrrolidinyl)ethyl]-10,11-dihydro-5H-pyrrolo[2,1-c][1,4]benzodiazepine-3-carboxamide]
17 | 33 | COc1cccc(-c2ccc(C(=O)N3Cc4ccc(C(=O)N5CCN(C(C)C)CC5)n4Cc4ccccc43)cc2OC)c1 [Example 242, {10-[(2,3′-Dimethoxy[1,1′-biphenyl]-4-yl)carbonyl]-10,11-dihydro-5H-pyrrolo[2,1-c][1,4]benzodiazepin-3-yl}(4-isopropyl-1-piperazinyl)methanone]
18 | 8 | COc1ccccc1-c1ccc(C(=O)N2Cc3ccc(C(=O)N4CCN(CCN5CCOCC5)CC4)n3Cc3ccccc32)cc1OC [Example 214, {10-[(2,2′-Dimethoxy[1,1′-biphenyl]-4-yl)carbonyl]-10,11-dihydro-5H-pyrrolo[2,1-c][1,4]benzodiazepin-3-yl}{4-[2-(4-morpholinyl)ethyl]-1-piperazinyl}methanone]
19 | 26 | COc1cc(-c2ccccc2C)c(Cl)cc1C(=O)N1Cc2ccc(C(=O)N(C)C3CCN(C)CC3)n2Cc2ccccc21 [Example 180, 10-[(6-Chloro-3-methoxy-2′-methyl[1,1′-biphenyl]-4-yl)carbonyl]-N-methyl-N-(1-methyl-4-piperidinyl)-10,11-dihydro-5H-pyrrolo[2,1-c][1,4]benzodiazepine-3-carboxamide]
20 | 45 | Cc1ccccc1-c1ccc(C(=O)N2Cc3ccc(C(=O)N4CCN(CCN5CCOCC5)CC4)n3Cc3ccccc32)cc1C [Example 218, {10-[(2,2′-Dimethyl[1,1′-biphenyl]-4-yl)carbonyl]-10,11-dihydro-5H-pyrrolo[2,1-c][1,4]benzodiazepin-3-yl}{4-[2-(4-morpholinyl)ethyl]-1-piperazinyl}methanone]
21 | 31 | Cc1ccccc1-c1ccc(C(=O)N2Cc3ccc(C(=O)N4CCN(C(C)C)CC4)n3Cc3ccccc32)cc1C [Example 233, {10-[(2,2′-Dimethyl[1,1′-biphenyl]-4-yl)carbonyl]-10,11-dihydro-5H-pyrrolo[2,1-c][1,4]benzodiazepin-3-yl}(4-isopropyl-1-piperazinyl)methanone]
22 | -6 | CN(C)CCN1CCN(C(=O)c2ccc3n2Cc2ccccc2N(C(=O)c2ccc(-c4cccc5ccccc45)cc2Cl)C3)CC1 [Example 205, {10-[2-Chloro-4-(1-naphthyl)benzoyl]-10,11-dihydro-5H-pyrrolo[2,1-c][1,4]benzodiazepin-3-yl}{4-[2-(dimethylamino)ethyl]-1-piperazinyl}methanone]
23 | 3 | COc1cc(-c2ccccc2C)c(Cl)cc1C(=O)N1Cc2ccc(C(=O)N3CCN(C(C)C)CC3)n2Cc2ccccc21 [Example 238, {10-[(6-Chloro-3-methoxy-2′-methyl[1,1′-biphenyl]-4-yl)carbonyl]-10,11-dihydro-5H -pyrrolo[2,1-c][1,4]benzodiazepin-3-yl}(4-isopropyl-1-piperazinyl)methanone]
24 | 18 | COc1ccccc1-c1ccc(C(=O)N2Cc3ccc(C(=O)NCCC4CCCN4C)n3Cc3ccccc32)cc1C (stereo not shown) [Example 162, 10-[(2′-Methoxy-2-methyl[1,1′-biphenyl]-4-yl)carbonyl]-N-[2-(1-methyl-2-pyrrolidinyl)ethyl]-10,11-dihydro-5H-pyrrolo[2,1-c][1,4]benzodiazepine-3-carboxamide]
25 | 8 | Cc1cc(C(=O)N2Cc3ccc(C(=O)NCCN4CCCCC4)n3Cc3ccccc32)ccc1-c1ccccc1C(F)(F)F [Example 161, 10-{[2-Methyl-2′-(trifluoromethyl)[1,1′-biphenyl]-4-yl]carbonyl}-N-[2-(1-piperidinyl)ethyl]-10,11-dihydro-5H-pyrrolo[2,1-c][1,4]benzodiazepine-3-carboxamide]

Reference: patent US7109193B2, “Tricyclic diazepines tocolytic oxytocin receptor antagonists” (Wyeth, priority 2001, dated 2006)
